pKi: −log10 of the molar value.
These compounds were tested against T1, hMCHR (MCH receptor) (Homo sapiens, UniProt Q99705) (assay: MCH Assay PCOP Protocol ([125I]-MCH SPA binding to hMCHR-CHO membranes)). Conditions: [125I]-MCH 0.5 nM, hMCHR-CHO membranes; read-out: Activity (ranges of Ki values).
T1 construct: (or internally produced); host or cells: CHO (Chinese hamster ovary) cells, membrane preparation
Description: A reaction mixture of 10 μg hMCHR-CHO overexpressing membranes (from Receptor Biology, Inc., Beltsville, Md., or internally produced) and 100 μg/well WGA-SPA beads (from Amersham Pharmacia Biotech, Inc., Piscataway, N.J.)/100 μl was prepared in MCHR assay buffer (25 mM HEPES, pH 7.4, 10 mM NaCl, 10 mM MgCl2, 5 mM MnCl2, 0.1% BSA). […] The assay plates were shaken for 5 minutes on a plate shaker, then incubated for 2 hours before cpm/well were determined in a Microbeta Trilux counter (from PerkinElmer Wallac, Inc., Gaithersburg, Md.).
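Throughout, for Activity (Ki range): A 0.4–50 nM B 51–500 nM C 501–2500 nM.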

T1 sequence (Q99705 whole entry): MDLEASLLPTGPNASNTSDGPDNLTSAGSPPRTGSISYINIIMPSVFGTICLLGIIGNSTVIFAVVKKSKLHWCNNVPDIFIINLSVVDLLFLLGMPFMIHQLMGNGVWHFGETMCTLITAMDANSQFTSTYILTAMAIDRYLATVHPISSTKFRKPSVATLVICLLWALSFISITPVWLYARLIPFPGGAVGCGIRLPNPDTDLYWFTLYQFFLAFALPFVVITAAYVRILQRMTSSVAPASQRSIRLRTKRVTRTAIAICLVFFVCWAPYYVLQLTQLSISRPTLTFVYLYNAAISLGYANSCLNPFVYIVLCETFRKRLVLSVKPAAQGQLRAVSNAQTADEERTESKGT

SMILES	pKi
CCOC(=O)N1CCC(NCCC(CNC(=O)Nc2cc(Cl)cc(Cl)c2)c2ccc(C)cc2)CC1 (stereo not shown) [Example 123]	6.30 to 7.29
N#Cc1cccc(-c2ccc(C(CCNC3CCCC3)CNC(=O)c3cccc(F)c3)cc2)c1 (stereo not shown) [Example 84]	6.30 to 7.29
O=C(NCC(CCNC1CCCC1)c1ccc(Cl)cc1)Nc1ccc(Cl)c(Cl)c1 (stereo not shown) [Example 124]	6.30 to 7.29
Cc1noc(C)c1-c1ccc(C(CCNC2CCCC2)CNC(=O)Nc2cc(Cl)cc(Cl)c2)cc1 (stereo not shown) [Example 97]	6.30 to 7.29
O=C(NCC(CCNCCc1ccc(O)cc1)c1ccc(Cl)c(Cl)c1)Nc1ccc(F)c([N+](=O)[O-])c1 (stereo not shown) [Example 138]	6.30 to 7.29
N#Cc1cccc(-c2ccc(C(CCNC3CC3)CNC(=O)Nc3cc(Cl)cc(Cl)c3)cc2)c1 (stereo not shown) [Example 76]	7.30 to 9.40
O=C(NCC(CCNC1CCCC1)c1cccc(-c2ccc(Cl)cc2)c1)Nc1cc(Cl)cc(Cl)c1 (stereo not shown) [Example 152]	6.30 to 7.29
CCNC(=O)N1CCC(NCCC(CNC(=O)Nc2cc(Cl)cc(Cl)c2)c2ccc(C)cc2)C1 (stereo not shown) [Example 180]	6.30 to 7.29
C[N+](C)([O-])CCC(CNC(=O)Nc1cc(Cl)cc(Cl)c1)c1ccc(-c2cc[n+]([O-])cc2)cc1 (stereo not shown) [Example 41]	5.60 to 6.30
CN(C)CCCNCCC(C)(CNC(=O)Nc1ccc(F)c([N+](=O)[O-])c1)c1ccc(Cl)c(Cl)c1 (stereo not shown) [Example 117]	5.60 to 6.30
COCC(=O)NC1CCN(CCC(CNC(=O)Nc2cc(Cl)cc(Cl)c2)c2ccc(C)cc2)CC1 (stereo not shown) [Example 213]	5.60 to 6.30
O=C(NCC(CCNC1CCNC1)c1ccc(Cl)c(Cl)c1)Nc1ccc(Cl)c(Cl)c1 (stereo not shown) [Example 135]	6.30 to 7.29
N#Cc1cccc(-c2ccc(C(CCNC3CC3)CNC(=O)Nc3ccc(F)c(Cl)c3)cc2)c1 (stereo not shown) [Example 56]	7.30 to 9.40
O=C(NCC(CCNC1CCCC1)c1ccc(Cl)c(Cl)c1)Nc1ccc(F)c(F)c1 (stereo not shown) [Example 144]	5.60 to 6.30
CS(=O)(=O)NC1CCN(CCC(CNC(=O)Nc2cc(Cl)cc(Cl)c2)c2ccc(-c3cccc(C#N)c3)cc2)CC1 (racemic) [Example 29, (R,S)-N-(1-{3-(3′-Cyano-biphenyl-4-yl)-4-[3-(3,5-dichloro-phenyl)-ureido]-butyl}-piperidin-4-yl)methane-sulfonamide]	5.60 to 6.30
CCOC(=O)N1CCC(NCCC(CNC(=O)Nc2cccc(C(F)(F)F)c2)c2ccc(Cl)cc2)CC1 (stereo not shown) [Example 128]	6.30 to 7.29
CNCCC(CNC(=O)Nc1ccc(F)c(F)c1)c1ccc(-c2cccc(C#N)c2)cc1 (stereo not shown) [Example 44]	7.30 to 9.40

SMILES	pKi
COc1cc(CNCCC(CNC(=O)Nc2ccc(F)c(Cl)c2)c2ccc(Cl)c(Cl)c2)cc(OC)c1OC (stereo not shown) [Example 126]	6.30 to 7.29
N#Cc1cccc(-c2ccc(C(CCNC3CC3)CNC(=O)c3cc(F)cc(F)c3)cc2)c1 (stereo not shown) [Example 69]	6.30 to 7.29
N#Cc1cccc(-c2ccc(C(CCN3CCOCC3)CNC(=O)Nc3cc(Cl)cc(Cl)c3)cc2)c1 (stereo not shown) [Example 81]	7.30 to 9.40
CC(=O)NC1CCN(CCC(CNC(=O)Nc2cc(Cl)cc(Cl)c2)c2ccc(Cl)cc2)CC1 (stereo not shown) [Example 196]	6.30 to 7.29
CN(C)CCC(CN1CCN(c2cc(Cl)cc(Cl)c2)C1=O)c1ccc(-c2cccc(C#N)c2)cc1 (stereo not shown) [Example 32, 4′-{1-[3-(3,5-Dichlorophemyl)-2-oxoimidazolidin-1-ylmethyl]-3-dimethylaminopropyl}-biphenyl-3-carbonitrile]	5.60 to 6.30
CN(C)CCCNCCC(CNC(=O)Nc1cc(Cl)cc(Cl)c1)c1cccc(-c2ccccc2Cl)c1 (stereo not shown) [Example 176]	5.60 to 6.30
CC(CCNC1CCCC1)(CNC(=O)Nc1ccc(Cl)c([N+](=O)[O-])c1)c1ccc(Cl)c(Cl)c1 (stereo not shown) [Example 105]	6.30 to 7.29
CN(C)CCC(CNC(=O)Nc1cc(Cl)cc(Cl)c1)c1ccc(-c2cccnc2)cc1 (stereo not shown) [Example 36]	7.30 to 9.40
O=C(NCC(CCN1CCC(NC(=O)C2CCC2)C1)c1ccc(Cl)c(Cl)c1)Nc1cc(Cl)cc(Cl)c1 (stereo not shown) [Example 181]	6.30 to 7.29
CN(C)CCCNCCC(CNC(=O)Nc1cc(Cl)cc(Cl)c1)c1cccc(-c2ccccc2)c1 (stereo not shown) [Example 171]	5.60 to 6.30
CNCCC(C(=O)Nc1cc(Cl)cc(Cl)c1)c1ccc(-c2cccc(C#N)c2)cc1 (stereo not shown) [Example 31, 2-(3′-Cyano-biphenyl-4-yl)-N-(3,5-dichloro-phenyl)-4-methylamino-butyramide]	5.60 to 6.30
CN(C)CCC(CNS(=O)(=O)c1cc(Cl)cc(Cl)c1)c1ccc(-c2cccc(C#N)c2)cc1 (racemic) [Example 25, (R,S)-3,5-Dichloro-N-[2-(3′-cyano-biphenyl-4-yl)-4-dimethylaminobutyl]-benzenesulfonamide]	5.60 to 6.30
O=C(NCC(CCNC1CCCC1)c1cccs1)Nc1ccc(Cl)c([N+](=O)[O-])c1 (stereo not shown) [Example 110]	6.30 to 7.29
CN(C)CCCNCCC(CNC(=O)Nc1cc(Cl)cc(Cl)c1)c1ccc(Cl)cc1 (stereo not shown) [Example 112]	5.60 to 6.30
COc1cscc1C(=O)NC1CCN(CCC(CNC(=O)Nc2cc(Cl)cc(Cl)c2)c2ccc(Cl)c(Cl)c2)C1 (stereo not shown) [Example 200]	5.60 to 6.30
CN(C)CCCNCCC(CNC(=O)Nc1cc(Cl)cc(Cl)c1)c1ccc(-c2ccc(F)c(F)c2)cc1 (stereo not shown) [Example 92]	7.30 to 9.40

Same assay, conditions: [125I]-MCH SPA binding, hMCHR-CHO membranes; Ki class ranges; read-out: Activity (range of Ki)

SMILES	pKi
O=C(NCC(CCNCCc1ccc(O)cc1)c1ccc(Cl)c(Cl)c1)Nc1cc(C(F)(F)F)cc(C(F)(F)F)c1 (stereo not shown) [Example 426]	5.60 to 6.30
COc1ccc2[nH]cc(CCNCCC(CNC(=O)Nc3cc(C(F)(F)F)cc(C(F)(F)F)c3)c3ccc(Cl)c(Cl)c3)c2c1 (stereo not shown) [Example 434]	5.60 to 6.30
O=C(NCC(CCN1CCCCC1)c1ccc(Cl)c(Cl)c1)c1cccc(C(F)(F)F)c1 (stereo not shown) [Example 449]	5.60 to 6.30
Cc1ccc(C(CCN2CCCCC2)CNC(=O)Nc2cc(C(F)(F)F)cc(C(F)(F)F)c2)cc1 (stereo not shown) [Example 445]	5.60 to 6.30
N#Cc1cccc(C(=O)NCC(CCN2CCCCC2)c2ccc(Cl)c(Cl)c2)c1 (stereo not shown) [Example 453]	5.60 to 6.30
COc1ccc2c(CCNCCC(CNC(=O)Nc3cc(C(F)(F)F)cc(C(F)(F)F)c3)c3ccc(Cl)c(Cl)c3)c[nH]c2c1 (stereo not shown) [Example 437]	5.60 to 6.30

Same assay, conditions: [125I]-MCH binding to hMCHR-CHO membranes; class symbols for ranges of Ki; read-out: Activity (Ki range)

SMILES	pKi
COc1ccc2[nH]cc(CCNCCC(CNC(=O)c3cc(C(F)(F)F)cc(C(F)(F)F)c3)c3ccc(Cl)c(Cl)c3)c2c1 (stereo not shown) [Example 396]	5.60 to 6.30
Cc1ccc(-c2ccc(C(CCNCCCN(C)C)CNC(=O)Nc3cc(Cl)cc(Cl)c3)cc2)cc1 (stereo not shown) [Example 254]	5.60 to 6.30
O=C(NCC(CCNCc1ccc2c(c1)OCO2)c1ccc(Cl)c(Cl)c1)Nc1ccc(F)c(Cl)c1 (stereo not shown) [Example 261]	6.30 to 7.29
CC1CCN(CCC(C(=O)NCc2cc(C(F)(F)F)cc(C(F)(F)F)c2)c2ccc(Cl)c(Cl)c2)CC1 (stereo not shown) [Example 382]	5.60 to 6.30
O=C(NCC(CCN1CCCC1)c1ccc(Cl)c(Cl)c1)Nc1cccc(C(F)(F)F)c1 (stereo not shown) [Example 299]	5.60 to 6.30
COc1ccc(-c2ccc(C(CCNC3CCCC3)CNC(=O)Nc3cc(Cl)cc(Cl)c3)cc2)cc1 (stereo not shown) [Example 241]	6.30 to 7.29
COc1cc(NC(=O)NCC(CCN2CCC(N3CCCCC3)CC2)c2ccc(Cl)c(Cl)c2)cc(OC)c1 (stereo not shown) [Example 370]	5.60 to 6.30
O=C(NCC(CCN1CCC(N2CCCCC2)CC1)c1ccc(Cl)c(Cl)c1)Nc1ccc(F)c([N+](=O)[O-])c1 (stereo not shown) [Example 356]	6.30 to 7.29
O=C(NCC(CCNCCc1ccc(O)cc1)c1ccc(Cl)c(Cl)c1)Nc1cccc(C(F)(F)F)c1 (stereo not shown) [Example 293]	6.30 to 7.29
O=C(NCC(CCN1CCC(N2CCCCC2)CC1)c1ccc(Cl)c(Cl)c1)Nc1cccc(Br)c1 (stereo not shown) [Example 312]	6.30 to 7.29
O=C(NCC(CCNCCc1c[nH]c2ccccc12)c1ccc(Cl)cc1)Nc1cc(C(F)(F)F)cc(C(F)(F)F)c1 (stereo not shown) [Example 330]	6.30 to 7.29
CCOC(=O)N1CCC(NCCC(CNC(=O)Nc2cc(Cl)cc(Cl)c2)c2ccc(Cl)c(Cl)c2)CC1 (stereo not shown) [Example 277]	6.30 to 7.29
CN1CCCC1CCNCCC(CNC(=O)Nc1cc(Cl)cc(Cl)c1)c1ccc(Cl)c(Cl)c1 (stereo not shown) [Example 301]	5.60 to 6.30
O=C(NCC(CCNCc1ccc2c(c1)OCO2)c1ccc(Cl)c(Cl)c1)Nc1cc(Cl)cc(Cl)c1 (stereo not shown) [Example 295]	5.60 to 6.30
CN(C)CCCNCCC(CNC(=O)Nc1cc(Cl)cc(Cl)c1)c1ccc(-c2ccc3c(c2)OCO3)cc1 (stereo not shown) [Example 223]	7.30 to 9.40
CN(C)CCCNCCC(CNC(=O)Nc1cc(Cl)cc(Cl)c1)c1ccc(-c2cc(C(F)(F)F)cc(C(F)(F)F)c2)cc1 (stereo not shown) [Example 256]	5.60 to 6.30
O=C(NCC(CCNC1CCCC1)c1ccc(-c2cc(Cl)cc(Cl)c2)cc1)Nc1cc(Cl)cc(Cl)c1 (stereo not shown) [Example 236]	6.30 to 7.29
CC(Cc1c[nH]c2ccc(F)cc12)NCCC(CNC(=O)c1cc(C(F)(F)F)cc(C(F)(F)F)c1)c1ccc(Cl)c(Cl)c1 (stereo not shown) [Example 399]	5.60 to 6.30
CC(C)OCCCNCCC(C(=O)NCc1cc(C(F)(F)F)cc(C(F)(F)F)c1)c1ccc(Cl)c(Cl)c1 (stereo not shown) [Example 384]	5.60 to 6.30
CN(C)CCCNCCC(CNC(=O)Nc1cc(Cl)cc(Cl)c1)c1ccc(-c2ccc(Cl)cc2)cc1 (stereo not shown) [Example 246]	6.30 to 7.29
O=C(NCC(CCNC1CCCC1)c1ccc(-c2ccc(C(F)(F)F)cc2)cc1)Nc1cc(Cl)cc(Cl)c1 (stereo not shown) [Example 250]	6.30 to 7.29
O=C(NCC(CCNC1CCCC1)c1ccc(-c2ccc(F)cc2)cc1)Nc1cc(Cl)cc(Cl)c1 (stereo not shown) [Example 243]	6.30 to 7.29
O=C(NCc1cc(C(F)(F)F)cc(C(F)(F)F)c1)C(CCN1CCCCC1CO)c1ccc(Cl)c(Cl)c1 (stereo not shown) [Example 383]	5.60 to 6.30
CCCCN(CCC(CNC(=O)c1cc(C(F)(F)F)cc(C(F)(F)F)c1)c1ccc(Cl)c(Cl)c1)C1CC1 (stereo not shown) [Example 401]	5.60 to 6.30
COc1ccc(C(CCNCCc2c[nH]c3ccccc23)CNC(=O)Nc2cc(C(F)(F)F)cc(C(F)(F)F)c2)cc1 (stereo not shown) [Example 331]	6.30 to 7.29

From patent US7034056B2, “Aryl and biaryl compounds having MCH modulatory activity” (Pharmacopeia Drug Discovery, inc., priority 2001, dated 2006)
